A short description of series [1]: AUC (0 to t) in Sprague-Dawley rat treated with luteolin at 6.5 mg/kg, iv. Set-up: dose 6.5 mg/kg, route intravenous. The class given is ADME, organism-based. As to conditions: plasma.
Series [2] can be described thus: AUC (0 to infinity) in Sprague-Dawley rat treated with luteolin at 6.5 mg/kg, iv. The series is classed as ADME, organism-based. Set-up: time infinity, dose 6.5 mg/kg, route intravenous. As to conditions: plasma.
Series [3] is described as follows: Mean residence time (0 to t) in Sprague-Dawley rat treated with luteolin at 6.5 mg/kg, iv. Details: dose 6.5 mg/kg, route intravenous. As to conditions: in vivo. The class given is ADME, organism-based.
Series [4] can be described thus: Mean residence time (0 to infinity) in Sprague-Dawley rat treated with luteolin at 6.5 mg/kg, iv. The class given is ADME, organism-based. Set-up: dose 6.5 mg/kg, route intravenous. As to conditions: in vivo.
The nature of series [5]: Half life in Sprague-Dawley rat treated with luteolin at 6.5 mg/kg, iv. The series is classed as ADME, organism-based. Details: dose 6.5 mg/kg, route intravenous. Particulars: in vivo.
The next series relates to Rattus norvegicus. Briefly: Clearance in Sprague-Dawley rat treated with luteolin at 6.5 mg/kg, iv. As to conditions: in vivo. The series is classed as ADME, organism-based. Details: dose 6.5 mg/kg, route intravenous.
Series [6] can be described thus: Volume of distribution in Sprague-Dawley rat treated with luteolin at 6.5 mg/kg, iv. The class given is ADME, organism-based. Set-up: dose 6.5 mg/kg, route intravenous. Particulars: in vivo.
Series [7] is described as follows: Cmax in Sprague-Dawley rat treated with luteolin at 6.5 mg/kg, iv. Set-up: dose 6.5 mg/kg, route intravenous. The series is classed as ADME, organism-based. Particulars: in vivo.
Series [8] in a line: Drug excretion in Sprague-Dawley rat urine treated with luteolin at 6.5 mg/kg, iv after 24 hrs. Details: dose 6.5 mg/kg, route intravenous. Particulars: read-out: Drug excretion. The series is classed as ADME, organism-based.
Series [9] can be described thus: Drug excretion in Sprague-Dawley rat urine treated with luteolin at 6.5 mg/kg, iv after 24 hrs co-treated with COMT inhibitor entacapone. The series is classed as ADME, organism-based. Set-up: dose 6.5 mg/kg, route intravenous. As to conditions: read-out: Drug excretion.
The nature of series [10]: Drug recovery in Sprague-Dawley rat urine assessed as retention time treated with luteolin at 6.5 mg/kg, iv by reverse-phase HPLC method. The class given is ADME, organism-based. Details: dose 6.5 mg/kg, route intravenous. As to conditions: in vivo.
Series [11] concerns Liver. Briefly: Drug metabolism in Sprague-Dawley rat liver homogenate treated with luteolin at 20 uM after 20 to 60 mins. The class given is ADME, tissue-based. As to conditions: tissue homogenate.
In series [12] the test system is Kidney. Put plainly: Drug metabolism in Sprague-Dawley rat kidney homogenate treated with luteolin at 20 uM after 20 to 60 mins. The class given is ADME, tissue-based. As to conditions: tissue homogenate.
Series [13] deals with Lung. Briefly: Drug metabolism in Sprague-Dawley rat lung homogenate treated with luteolin at 20 uM after 20 to 60 mins. The series is classed as ADME, tissue-based. As to conditions: tissue homogenate.
The subject of series [14] is Small intestine. Put plainly: Drug metabolism in Sprague-Dawley rat small intestine homogenate treated with luteolin at 20 uM after 20 to 60 mins. The class given is ADME, tissue-based. As to conditions: tissue homogenate.
Series [15] in a line: Drug metabolism in Sprague-Dawley rat erythrocytes homogenate treated with luteolin at 20 uM after 20 to 60 mins. Particulars: erythrocyte. The series is classed as ADME, cell-based.
For series [16], the system named is Liver. Briefly: Drug metabolism in Sprague-Dawley rat liver homogenate treated with luteolin at 20 uM after 20 to 60 mins in presence of COMT inhibitor entacapone. The series is classed as ADME, tissue-based. Particulars: tissue homogenate.
Series [17] relates to Kidney. Briefly: Drug metabolism in Sprague-Dawley rat kidney homogenate treated with luteolin at 20 uM after 20 to 60 mins in presence of COMT inhibitor entacapone. The class given is ADME, tissue-based. As to conditions: tissue homogenate.
Series [18] relates to Lung. Put plainly: Drug metabolism in Sprague-Dawley rat lung homogenate treated with luteolin at 20 uM after 20 to 60 mins in presence of COMT inhibitor entacapone. The class given is ADME, tissue-based. As to conditions: tissue homogenate.
Series [19] deals with Small intestine. Briefly: Drug metabolism in Sprague-Dawley rat small intestine homogenate treated with luteolin at 20 uM after 20 to 60 mins in presence of COMT inhibitor entacapone. The series is classed as ADME, tissue-based. As to conditions: tissue homogenate.
Series [20] can be described thus: Drug metabolism in Sprague-Dawley rat erythrocytes homogenate treated with luteolin at 20 uM after 20 to 60 mins in presence of COMT inhibitor entacapone. The class given is ADME, cell-based. Particulars: erythrocyte.
For a further series, the system named is Liver microsome. Briefly: Stability in Sprague-Dawley rat liver microsomes at 10 uM after 10 to 30 mins by HPLC analysis. The series is classed as ADME. In general terms: Liver microsomes are a subcellular fraction often used to study metabolism.

As to `COc1cc(-c2cc(=O)c3c(O)cc(O)cc3o2)ccc1O` [CHRYSOERIOL], the AUC(0-t) in [1] amounted to 2090 ng·h/mL. Further, the AUC(0-inf) in series [2] turned out to be 2280 ng·h/mL. The same molecule yielded an MRT last in series [3] of 1.24 h. The molecule also had an MRT inf in series [4] of 1.76 h. In [5], the half-life is 1.57 h. Also, the clearance in the series with Rattus norvegicus came out at 49 mL/min/kg. The Vd in series [6] turned out to be 6.34 L/kg. In series [7], this molecule had a Cmax of 2060 ng/mL. The dose excreted at 24 h worked out at 1.92% in series [8] and 0.451% in series [9]. Moreover, the Retention_time in series [10] is reported as 29.35 min. For the same molecule, the Drug metabolism entry is recorded as “metabolite_detected” in the series on Liver [11]; “metabolite_detected” in the series with Kidney [12]; “metabolite_detected” with Lung [13]; “metabolite_detected” in the series on Small intestine [14]; “metabolite_detected” in series [15]; “metabolite_not_detected” with Liver [16]. For the same molecule, the Drug metabolism result (in the series on Kidney [17]; in the series on Lung [18]; in the series with Small intestine [19]; in series [20]) was “metabolite_not_detected” each time. The Stability result in the series on Liver microsome is listed as “Unstable”.
`COc1ccc(-c2cc(=O)c3c(O)cc(O)cc3o2)cc1O` [DIOSMETIN] yielded an AUC(0-t) in series [1] of 427 ng·h/mL. The same molecule gave an AUC(0-inf) in series [2] of 466 ng·h/mL. In [3], this molecule came in with an MRT last of 0.597 h. Besides, in [4], the MRT inf was 0.767 h. For the same molecule, the half-life in series [5] was 0.514 h. For the same molecule, the clearance in the series with Rattus norvegicus was determined as 238 mL/min/kg. The molecule also returned a Vd in series [6] of 10.3 L/kg. In [7], this molecule registered a Cmax of 560 ng/mL. The figures for the dose excreted at 24 h in series [8] and in series [9] were 1.22% and 0.254%, respectively. For the same molecule, the Retention_time in [10] is 30.85 min. Besides, the Drug metabolism entry with Liver [11] is “metabolite_detected”; in the series with Kidney [12] it was “metabolite_detected”; in the series with Lung [13] it was “metabolite_detected”; with Small intestine [14] it was “metabolite_detected”; in [15], “metabolite_detected”; in the series with Liver [16], “metabolite_not_detected”. In addition, the Drug metabolism entry (in the series with Kidney [17]; in the series with Lung [18]; in the series with Small intestine [19]; in series [20]) was “metabolite_not_detected” throughout. In the series on Liver microsome, the Stability entry is recorded as “Unstable”.

For orientation: AUC(0-t) means the area under the concentration-time curve up to a stated or last time point. Low readings indicate low exposure, high ones high exposure. What is called AUC(0-inf) is total exposure, with the tail of the curve extrapolated. One may read the MRT last as the average time that molecules of a dose stay in the body. In general, MRT inf refers to the average time that molecules of a dose stay in the body. As a reminder, the half-life is the time in which the quantity being followed falls by half. High values mean slow loss, low ones fast loss. By clearance is commonly meant a measure of how efficiently the substance is removed, as volume per time. The low end stands for inefficient removal, the high end for efficient removal. By Vd is commonly meant a proportionality between amount in the body and measured concentration, not a real space. A high value points to wide distribution into tissue. A word on the Cmax: it is the maximum level reached in the sampled fluid or tissue.

(Values after ChEMBL document CHEMBL3525960, “Role of catechol-O-methyltransferase in the disposition of luteolin in rats” (Drug Metab Dispos, 2011).)
